Test results as given in ChEMBL document CHEMBL5303304, “EUbOPEN Chemogenomics Library - IncuCyte” (2023).

Experiments:
Type in all cases: toxicity, cell-based
U2OS = assay: Incucyte cell viability with U2OS; details: human, 10 µM, compound concentration 10 uM
HEK-293T = assay: Incucyte cell viability with HEK293T; details: human, 10 µM, compound concentration 10 uM
Fibroblast = assay: Incucyte cell viability with human fibroblast; details: 10 µM, compound concentration 10 uM
Also: unitless GR value; below 1 slowed growth and below 0 cell loss.

| Compound | Growth Rate (U2OS; 24 h, replicate number 1) | Growth Rate (HEK-293T; 6 h, replicate number 2) | Growth Rate (HEK-293T; 12 h, replicate number 1) | Growth Rate (HEK-293T; 12 h, replicate number 2) | Growth Rate (HEK-293T; 18 h, replicate number 1) | Growth Rate (HEK-293T; 24 h, replicate number 1) | Growth Rate (Fibroblast; 0 h, replicate number 2) | Growth Rate (Fibroblast; 24 h, replicate number 1) | Growth Rate (U2OS; 6 h, replicate number 2) | Growth Rate (U2OS; 12 h, replicate number 1) | Growth Rate (U2OS; 12 h, replicate number 2) | Growth Rate (U2OS; 18 h, replicate number 2) | Growth Rate (U2OS; 24 h, replicate number 2) | Growth Rate (HEK-293T; 18 h, replicate number 2) | Growth Rate (HEK-293T; 24 h, replicate number 2) | Growth Rate (Fibroblast; 0 h, replicate number 1) | Growth Rate (Fibroblast; 18 h, replicate number 1) | Growth Rate (Fibroblast; 18 h, replicate number 2) | Growth Rate (Fibroblast; 24 h, replicate number 2) | Growth Rate (HEK-293T; 0 h, replicate number 1) | other results |
| --- | --- | --- | --- | --- | --- | --- | --- | --- | --- | --- | --- | --- | --- | --- | --- | --- | --- | --- | --- | --- | --- |
| O=C(O)Cc1ccc(CCNS(=O)(=O)c2ccc(Cl)cc2)cc1 [DALTROBAN] | 0.96 | 0.8 | 0.38 | 0.95 | 0.67 | 0.72 | -0.53 | 0.99 |  |  |  |  |  |  |  |  |  |  |  |  | Growth Rate (HEK-293T; 6 h, replicate number 1): 0.23 |
| CCn1cnc2c(-c3ccc(F)c(-c4ccc(S(=O)(=O)CC)cc4OC)c3)cnnc21 [DARIGABAT] | 0.01 | -0.84 | -0.63 | -0.47 | -0.38 | -0.32 |  | -0.69 | -0.7 | -0.49 | -0.46 | -0.24 | -0.05 | -0.28 | -0.18 | -0.83 | -0.97 | -0.67 | -0.48 |  | Growth Rate (U2OS; 0 h, replicate number 2): -0.95; Growth Rate (U2OS; 6 h, replicate number 1): -0.92; Growth Rate (U2OS; 18 h, replicate number 1): -0.16; Growth Rate (HEK-293T; 6 h, replicate number 1): -0.79; Growth Rate (Fibroblast; 6 h, replicate number 2): -1; Growth Rate (Fibroblast; 12 h, replicate number 1): 1; Growth Rate (Fibroblast; 12 h, replicate number 2): -0.93 |
| Cn1c(C2(NC(=O)c3ccc4c(C5CCCC5)c(-c5ncc(Br)cn5)n(C)c4c3)CCC2)nc2ccc(/C=C/C(=O)[O-])cc21.[Na+] [DELEOBUVIR SODIUM] |  |  |  |  | 0.92 | 0.94 | -0.22 |  |  |  | 0.79 | 0.92 | 0.93 | 0.81 | 0.8 |  |  |  |  | 0.69 | Growth Rate (HEK-293T; 0 h, replicate number 2): 0.32; Growth Rate (Fibroblast; 6 h, replicate number 2): -0.13 |
| Cn1c(C2(NC(=O)c3ccc4c(C5CCCC5)c(-c5ncc(Br)cn5)n(C)c4c3)CCC2)nc2ccc(/C=C/C(=O)O)cc21 [DELEOBUVIR] | 0.7 | 0.72 |  | 0.88 | 0.92 | 0.91 |  | 0.85 | 0.75 | 0.44 | 0.92 |  | 0.88 | 0.88 | 0.85 | -1 | 0.98 |  |  |  | Growth Rate (U2OS; 6 h, replicate number 1): 0.31; Growth Rate (U2OS; 18 h, replicate number 1): 0.49 |
| [2H]C([2H])([2H])NC(=O)c1nnc(NC(=O)C2CC2)cc1Nc1cccc(-c2ncn(C)n2)c1OC [DEUCRAVACITINIB] | 0.97 | 0.51 | 0.82 | 0.56 | 0.78 | 0.85 | 0 |  | 0.63 | 0.68 | 0.76 | 0.71 | 0.74 | 0.68 | 0.76 | 0.51 |  | 0.85 | 0.9 |  | Growth Rate (U2OS; 0 h, replicate number 1): 0.39; Growth Rate (U2OS; 6 h, replicate number 1): 0.29; Growth Rate (U2OS; 18 h, replicate number 1): 0.89; Growth Rate (HEK-293T; 0 h, replicate number 2): 0.09; Growth Rate (HEK-293T; 6 h, replicate number 1): 0.66 |
| C[C@@H]1CC[C@@]2(OC1)O[C@H]1[C@@H](O)[C@H]3[C@@H]4CC[C@H]5C[C@@H](O[C@@H]6O[C@H](CO)[C@H](O[C@@H]7O[C@H](CO)C(O)[C@H](O[C@@H]8OC[C@@H](O)[C@H](O)[C@H]8O)[C@H]7O[C@@H]7O[C@H](CO)[C@H](O)[C@H](O[C@@H]8O[C@H](CO)[C@@H](O)[C@H](O)[C@H]8O)[C@H]7O)[C@H](O)[C@H]6O)[C@H](O)C[C@]5(C)[C@H]4CC[C@]3(C)[C@H]1[C@@H]2C (stereo not given in full) [DIGITONIN] | 1 | 0.94 |  | 0.65 |  |  | 0.94 | 0.88 | 0.68 | 0.85 | 0.67 | 0.6 | 0.6 | 0.68 | 0.72 | 0.3 | 0.93 | 0.73 | 0.85 | -0.37 | Growth Rate (U2OS; 0 h, replicate number 1): 0.49; Growth Rate (U2OS; 0 h, replicate number 2): 0.74; Growth Rate (U2OS; 18 h, replicate number 1): 0.96; Growth Rate (Fibroblast; 6 h, replicate number 2): 0.68; Growth Rate (Fibroblast; 12 h, replicate number 2): 0.67 |
| COc1ccc([C@@H]2Sc3ccccc3N(CCN(C)C)C(=O)[C@@H]2OC(C)=O)cc1.Cl [DILTIAZEM HYDROCHLORIDE] |  | 0.11 |  | 0.55 |  |  | -0.94 | 0.57 |  |  |  | 0.94 |  | 0.86 | 0.86 | 0.54 | 0.89 | 0.94 | 0.87 | 0.6 | Growth Rate (U2OS; 0 h, replicate number 2): -0.41; Growth Rate (Fibroblast; 12 h, replicate number 1): -0.67 |
| C[S+](C)[O-] [DIMETHYL SULFOXIDE] |  | 0.48 | 0.83 | 0.78 | 0.88 | 0.9 |  |  | 0.27 |  | 0.44 | 0.5 | 0.44 | 0.83 | 0.69 |  | 0.87 |  |  | 0.12 | Growth Rate (U2OS; 0 h, replicate number 2): 0.1; Growth Rate (U2OS; 6 h, replicate number 1): 0.89; Growth Rate (HEK-293T; 0 h, replicate number 2): 0.07; Growth Rate (Fibroblast; 6 h, replicate number 1): 0.99; Growth Rate (Fibroblast; 6 h, replicate number 2): 0.8; Growth Rate (Fibroblast; 12 h, replicate number 2): 0.83 |
| Cc1ccc(-n2nc(C(C)(C)C)cc2NC(=O)Nc2ccc(OCCN3CCOCC3)c3ccccc23)cc1 [DORAMAPIMOD] |  |  | 0.67 |  | 0.87 | 0.95 | 0.08 |  |  |  | 0.9 | 0.87 | 0.76 |  |  |  |  |  |  | -0.47 | Growth Rate (U2OS; 0 h, replicate number 1): -1; Growth Rate (HEK-293T; 6 h, replicate number 1): 0.67 |
| CSc1ccc(C(=O)/C=C/c2cc(C)c(OC(C)(C)C(=O)O)c(C)c2)cc1 [ELAFIBRANOR] | 0.92 | 0.6 |  | 0.79 |  |  | 0.85 |  | 0.45 | 0.63 | 0.69 |  | 0.76 | 0.97 | 0.99 | 0.61 | 0.87 | 0.9 | 0.75 | 0.18 | Growth Rate (U2OS; 0 h, replicate number 1): -0.15; Growth Rate (U2OS; 0 h, replicate number 2): 0.75; Growth Rate (U2OS; 6 h, replicate number 1): 0.88; Growth Rate (U2OS; 18 h, replicate number 1): 0.88; Growth Rate (Fibroblast; 6 h, replicate number 2): 0.74; Growth Rate (Fibroblast; 12 h, replicate number 2): 0.59 |
| OC(CN1CCC(Cc2ccc(F)cc2)CC1)c1ccc(Cl)cc1 (stereo not given) [ELIPRODIL] |  |  | 0.57 |  | 0.88 |  | -0.95 |  |  |  | 0.95 |  |  |  |  |  |  |  |  |  | Growth Rate (U2OS; 0 h, replicate number 2): -0.72; Growth Rate (HEK-293T; 0 h, replicate number 2): 0.62; Growth Rate (Fibroblast; 6 h, replicate number 1): -0.61; Growth Rate (Fibroblast; 6 h, replicate number 2): 0.5; Growth Rate (Fibroblast; 12 h, replicate number 1): -0.13 |
| COc1cc(F)ccc1-c1cc(Nc2cc(CS(C)(=N)=O)ccn2)ncc1F (stereo not given) [ENITOCICLIB] | 0.27 | -0.19 | -0.15 | -0.41 | -0.19 | -0.17 |  |  | 0.69 | 0.57 | 0.36 | 0.3 | 0.14 | -0.4 | -0.34 | -1 |  | 0.96 | 0.69 | -1 | Growth Rate (U2OS; 0 h, replicate number 1): -1; Growth Rate (U2OS; 18 h, replicate number 1): 0.29; Growth Rate (HEK-293T; 0 h, replicate number 2): 0.31; Growth Rate (HEK-293T; 6 h, replicate number 1): 0.19 |
| CN1CCN(c2ccc(C(=O)Nc3n[nH]c4ccc(Cc5cc(F)cc(F)c5)cc34)c(NC3CCOCC3)c2)CC1 [ENTRECTINIB] | -0.66 | -0.99 | -0.89 | -0.8 | -0.67 | -0.54 |  | -0.82 | -0.57 | -0.62 | -0.45 | -0.56 | -0.6 | -0.58 | -0.42 | -0.42 | -0.92 | -0.89 | -0.77 |  | Growth Rate (U2OS; 0 h, replicate number 2): -1; Growth Rate (U2OS; 6 h, replicate number 1): -0.92; Growth Rate (U2OS; 18 h, replicate number 1): -0.64; Growth Rate (HEK-293T; 6 h, replicate number 1): -0.98; Growth Rate (Fibroblast; 6 h, replicate number 2): -1; Growth Rate (Fibroblast; 12 h, replicate number 2): -0.97 |
| CN(C)CCC[C@@]1(c2ccc(F)cc2)OCc2cc(C#N)ccc21 [ESCITALOPRAM] | 0.9 |  | 0.84 | 0.97 | 0.56 | 0.6 |  | 0.84 |  | 1 |  |  |  | 0.59 |  | -1 | 0.69 | 0.85 | 0.74 | -0.16 | Growth Rate (U2OS; 0 h, replicate number 1): 0.18; Growth Rate (U2OS; 6 h, replicate number 1): 0.62; Growth Rate (HEK-293T; 0 h, replicate number 2): 0.57; Growth Rate (Fibroblast; 6 h, replicate number 1): 0.67 |
